Measured values taken from patent US20100324060A1, “PHARMACEUTICAL COMPOSITIONS USEFUL FOR TREATING HCV” (Gilead Sciences, Inc., priority 2009, published 2010).

Test system: HCV genotype 1b replicon cells (Huh-luc)
Experiment: HCV 1b replicon combination study (luciferase, MacSynergy II analysis)
Type: cell-based
Conditions: for Interaction: combination of Compound 1 and Compound 2, MacSynergy II
Experimental: HCV genotype 1b replicon cells (Huh-luc) were obtained from Reblikon (Mainz, Germany). The replicon in these cells is designated I389luc-ubi-neo/NS3-3′/ET and encodes a selectable resistance marker (neomycin phosphotransferase) as well as the firefly luciferase reporter gene. Huh-luc cells were maintained in Dulbecco's Modified Eagle's Medium (DMEM; GIBCO, Carlsbad, Calif.) supplemented with 10% fetal bovine serum (FBS; Hyclone, Logan, Utah) and 0.5 mg/mL of G-418 (GIBCO). Cells were passaged twice a week and maintained at subconfluent levels.
Replicon cells were seeded in 96-well plates at a density of 5×10^3 cells per well in 100 μL of DMEM culture medium, excluding G-418. Compounds 1 and 2 were serially diluted 1:3 in 100% DMSO (Sigma). These serial dilutions were added to the cells at a 1:200 dilution to achieve a final concentration of 0.5% DMSO in a total volume of 200 μL. Plates were incubated at 37° C. for 3 days, after which culture media were removed and cells were lysed and assayed for luciferase activity using a commercial luciferase assay (Promega, Madison, Wis.). HCV replication levels in drug-treated samples were expressed as a percentage of those in untreated controls (defined as 100%), and data were fit to the logistic dose response equation y=a/(1+(x/b)c) using XLFit4 software (IDBS, Emeryville, Calif.). EC50 values were calculated from the resulting equations as described previously (Delaney, W. E., et al., Antimicrobial Agents Chemotherapy, 45(6):1705-1713 (2001)). Replicon cells were seeded in 96-well plates at a density of 5×10^3 cells per well in 100 μL of culture medium. Compounds 1 and 2 were serially diluted in 100% DMSO as described above and added in a matrix format to 96-well plates, achieving a defined set of different drug concentrations and ratios in a final volume of 200 μL and a final DMSO concentration of 0.5%. […] Cells were incubated for three days and analyzed for luciferase expression as indicated above. […]
The calculated volumes of surface deviations are expressed in nM^2%. […]

Compound: Fc1ccccc1-c1nc2ccn(Cc3ccc(-c4ccc(C(F)(F)F)cc4C(F)(F)F)nn3)cc-2n1 [Compound 1, 5-({6-[2,4-bis(trifluoromethyl)phenyl]pyridazin-3-yl}methyl)-2-(2-fluorophenyl)-5H-imidazo[4,5-c]pyridine]
- Interaction: moderate synergistic interaction

Compound: CC(C)(C)NC(=O)N[C@H](C(=O)N1C[C@H]2[C@@H]([C@H]1C(=O)NC(CC1CCC1)C(=O)C(N)=O)C2(C)C)C(C)(C)C (stereo partly drawn) [Compound 2, (1R,2S,5S)-3-[N-(N-tert-Butylcarbamoyl)-3-methyl-L-valyl]-N-(2-cyclobutyl-1-oxamoylethyl)-6,6-dimethyl-3-azabicyclo[3.1.0]hexane-2-carboxamide]
- Interaction: Moderate synergy
- Antagonism Volume (in combination with Compound 1, 3 days, mean ± SD of two or three independent experiments in triplicate): −8.0 ± 13.6 nM^2
